Assay results reported in patent US4140849A, “Kanamycin C derivatives” (Zaidan Hojin Biseibutsu Kagaku Kenkyu Kai, priority 1977, dated 1979).
≈ marks a conversion by molar mass, not a printed value. Like-named read-outs stand apart in the source and are kept apart here.

How the values were obtained:
[1] = test system: Escherichia coli K-12 ML 1410; assay: Minimum inhibitory concentration, serial dilution on nutrient agar; assay type: cell-based; conditions: K12ML1410, 37° C., 18 hours, read-out: Minimum Inhibitory Concentrations
Method: (§1) The minimum inhibitory concentrations (mcg/ml.) of 1-N-(L-4-amino-2-hydroxybutyryl)-kanamycin C (abbreviated as AHB-KC), 1-N-(L-4-amino-2-hydroxybutyryl)-3'-deoxykanamycin C (abbreviated as AHB-DKC) and 1-N-(L-4-amino-2-hydroxybutyryl)-3',4'-dideoxykanamycin C (abbreviated as AHB-DDKC) against various microorganisms were determined according to serial dilution method on nutrient agar medium at 37° C., the estimation being effected after 18 hours incubation. For comparison, the minimum inhibitory concentrations of 1-N-(L-4-amino-2-hydroxybutyryl)-kanamycin A (amikacin) was also determined in the same manner as described above.

[2] = test system: Escherichia coli LA 290 R64; assay: as above; assay type: cell-based; conditions: LA290R64, 18 h, read-out: Minimum Inhibitory Concentrations
Method: as §1

[3] = test system: Klebsiella pneumoniae 22 No. 3038; assay: as above; assay type: cell-based; conditions: read-out: Minimum Inhibitory Concentrations
Method: as §1

[4] = test system: Mycobacterium smegmatis ATCC 607; assay: as above; assay type: cell-based; conditions: Mycolicibacterium smegmatis, ATCC607, 37° C., 18 hours, read-out: Minimum Inhibitory Concentrations
Method: as §1

Escherichia coli W 677 = assay: as above; assay type: cell-based; conditions: W677, 37° C., 18 hours, read-out: Minimum Inhibitory Concentrations
Method: as §1

[5] = test system: Escherichia coli JR 66/W677; assay: as above; assay type: cell-based; conditions: read-out: Minimum Inhibitory Concentrations
Method: as §1

Escherichia coli K-12 = assay: as above; assay type: cell-based; conditions: K12, 37° C., 18 hours, read-out: Minimum Inhibitory Concentrations
Method: as §1

[6] = test system: Escherichia coli K-12 ML 1410 R81; assay: as above; assay type: cell-based; conditions: 18 h, read-out: Minimum Inhibitory Concentrations
Method: as §1

[7] = test system: Pseudomonas aeruginosa H 11; assay: as above; assay type: cell-based; conditions: H11, 37° C., 18 hours, read-out: Minimum Inhibitory Concentrations
Method: as §1

Escherichia coli K-12 R5 = assay: as above; assay type: cell-based; conditions: K12R5, 18 h, read-out: Minimum Inhibitory Concentrations
Method: as §1

[8] = test system: Pseudomonas aeruginosa 99; assay: as above; assay type: cell-based; conditions: 37° C., 18 hours, read-out: Minimum Inhibitory Concentrations
Method: as §1

[9] = test system: Staphylococcus aureus FDA 209P; assay: as above; assay type: cell-based; conditions: FDA209P, 37° C., 18 hours, read-out: Minimum Inhibitory Concentrations
Method: as §1

[10] = test system: Escherichia coli K-12 ML 1630; assay: as above; assay type: cell-based; conditions: K12ML1630, 37° C., 18 hours, read-out: Minimum Inhibitory Concentrations
Method: as §1

[11] = test system: Escherichia coli K-12 ML 1629; assay: as above; assay type: cell-based; conditions: K12ML1629, 37° C., 18 hours, read-out: Minimum Inhibitory Concentrations
Method: as §1

[12] = test system: Pseudomonas aeruginosa GN 315; assay: as above; assay type: cell-based; conditions: GN315, 37° C., 18 hours, read-out: Minimum Inhibitory Concentrations
Method: as §1

[13] = test system: Klebsiella pneumoniae PCI 602; assay: as above; assay type: cell-based; conditions: PCI602, 37° C., 18 hours, read-out: Minimum Inhibitory Concentrations
Method: as §1

[14] = test system: Escherichia coli LA 290 R56; assay: as above; assay type: cell-based; conditions: LA290R56, 18 h, read-out: Minimum Inhibitory Concentrations
Method: as §1

[15] = test system: Pseudomonas aeruginosa A3; assay: as above; assay type: cell-based; conditions: read-out: Minimum Inhibitory Concentrations
Method: as §1

[16] = test system: Escherichia coli LA 290 R55; assay: as above; assay type: cell-based; conditions: LA290R55, 18 h, read-out: Minimum Inhibitory Concentrations
Method: as §1

Escherichia coli NIHJ = assay: as above; assay type: cell-based; conditions: 37° C., 18 hours, read-out: Minimum Inhibitory Concentrations
Method: as §1

[17] = test system: Pseudomonas aeruginosa TI-13; assay: as above; assay type: cell-based; conditions: read-out: Minimum Inhibitory Concentrations
Method: as §1

[18] = test system: Pseudomonas aeruginosa No. 12; assay: as above; assay type: cell-based; conditions: read-out: Minimum Inhibitory Concentrations
Method: as §1

[19] = LD50 upon intravenous injection in mice; conditions: mouse, in vivo, estimated
6'-acetyltransferase = conditions: cited from earlier work; for acetylation by a 6'-acetyltransferase: enzyme obtained from aminoglycoside-resistant strains, such as Pseudomonas aeruginosa GN315
[20] = test system: resistant bacteria producing the 2"-nucleotidyltransferase; conditions: prior compounds; cited from earlier work
[21] = test system: resistant bacteria producing the aminoglycoside 6'-acetyltransferase; conditions: cited from earlier work
[22] = test system: resistant bacteria producing aminoglycoside 3'-phosphotransferase; conditions: cited from earlier work
[23] = Klebsiella pneumoniae 22 No. 3038, nutrient agar, 37° C., 18 hours
[24] = JR66/W677, Escherichia coli JR 66/W677, nutrient agar, 37° C., 18 hours
[25] = Pseudomonas aeruginosa A3, nutrient agar, 37° C., 18 hours
[26] = TI13, Pseudomonas aeruginosa TI-13, nutrient agar, 37° C., 18 hours
[27] = Pseudomonas aeruginosa No. 12, nutrient agar, 37° C., 18 hours

SMILES	MIC [1] [µg/mL]	MIC [2] [µg/mL]	MIC [3, 23] [µg/mL]	MIC [4] [µg/mL]	MIC (Escherichia coli W 677) [µg/mL]	MIC [5, 24] [µg/mL]	MIC (Escherichia coli K-12) [µg/mL]	MIC [6] [µg/mL]	MIC [7] [µg/mL]	MIC (Escherichia coli K-12 R5) [µg/mL]	MIC [8] [µg/mL]	MIC [9] [µg/mL]	MIC [10] [µg/mL]	MIC [11] [µg/mL]	MIC [12] [µg/mL]	MIC [13] [µg/mL]	MIC [14] [µg/mL]	MIC [16] [µg/mL]	MIC (Escherichia coli NIHJ) [µg/mL]	growth inhibition of resistant bacteria producing the 2"-nucleotidyltransferase [20]	further results
NCCC(O)C(=O)NC1CC(N)C(OC2OC(CO)C(O)C(O)C2N)C(O)C1OC1OC(CO)C(O)C(N)C1O [AHB-KC, 1-N-(L-4-amino-2-hydroxybutyryl)-kanamycin C]	25 (≈ 42.7 µM)	12.5 (≈ 21.3 µM)	12.5 (≈ 21.3 µM)	3.13 (≈ 5.34 µM)	12.5 (≈ 21.3 µM)	25 (≈ 42.7 µM)	12.5 (≈ 21.3 µM)	12.5 (≈ 21.3 µM)	100 (≈ 171 µM)	6.25 (≈ 10.7 µM)	100 (≈ 171 µM)	6.25 (≈ 10.7 µM)	12.5 (≈ 21.3 µM)	6.25 (≈ 10.7 µM)	50 (≈ 85.4 µM)	3.13 (≈ 5.34 µM)	6.25 (≈ 10.7 µM)	12.5 (≈ 21.3 µM)	6.25 (≈ 10.7 µM)		MIC [15, 25]: 12.5 µg/mL (≈ 21.3 µM); MIC [17, 26]: 50 µg/mL (≈ 85.4 µM); MIC [18, 27]: 50 µg/mL (≈ 85.4 µM); LD50 [19]: > 400 mg/kg
NC1CC(N)C(OC2OC(CO)C(O)C(N)C2O)C(O)C1OC1OC(CO)C(O)C(O)C1N (stereo not drawn) [kanamycin C]																				not able to inhibit the growth	inactivation by the 6'-acetyltransferase (6'-acetyltransferase; see co-pending applications): cannot be inactivated
NCC[C@H](O)C(=O)N[C@@H]1C[C@H](N)[C@@H](O[C@H]2O[C@H](CN)[C@@H](O)[C@H](O)[C@H]2O)[C@H](O)[C@H]1O[C@H]1O[C@H](CO)[C@@H](O)[C@H](N)[C@H]1O [Amikacin, 1-N-(L-4-amino-2-hydroxybutyryl)-kanamycin A, reference compound]	0.78 (≈ 1.33 µM)	0.39 (≈ 0.666 µM)		< 0.2	< 0.2		0.78 (≈ 1.33 µM)	1.56 (≈ 2.66 µM)	12.5 (≈ 21.3 µM)	0.39 (≈ 0.666 µM)	6.25 (≈ 10.7 µM)	0.39 (≈ 0.666 µM)	0.78 (≈ 1.33 µM)	0.78 (≈ 1.33 µM)	100 (≈ 171 µM)	0.39 (≈ 0.666 µM)	0.39 (≈ 0.666 µM)	0.78 (≈ 1.33 µM)	0.78 (≈ 1.33 µM)		MIC ([3]; Klebsiella pneumoniae, 22NO.3038, 18 h): 1.56 µg/mL (≈ 2.66 µM); MIC ([5]; Escherichia coli, JR66/W677, 18 h): 1.56 µg/mL (≈ 2.66 µM); MIC ([15]; Pseudomonas aeruginosa, A3, 18 h): 3.13 µg/mL (≈ 5.34 µM); MIC ([17]; Pseudomonas aeruginosa, TI13, 18 h): 3.13 µg/mL (≈ 5.34 µM); MIC ([18]; Pseudomonas aeruginosa, NO.12, 18 h): 3.13 µg/mL (≈ 5.34 µM); acetylation by a 6'-acetyltransferase (6'-acetyltransferase): acetylated
NCCC(O)C(=O)NC1CC(N)C(OC2OC(CO)C(O)CC2N)C(O)C1OC1OC(CO)C(O)C(N)C1O [AHB-DKC, 1-N-(L-4-amino-2-hydroxybutyryl)-3'-deoxykanamycin C]	6.25 (≈ 11 µM)	3.13 (≈ 5.49 µM)	6.25 (≈ 11 µM)	12.5 (≈ 21.9 µM)	6.25 (≈ 11 µM)	12.5 (≈ 21.9 µM)	6.25 (≈ 11 µM)	12.5 (≈ 21.9 µM)	50 (≈ 87.8 µM)	6.25 (≈ 11 µM)	100 (≈ 176 µM)	6.25 (≈ 11 µM)	12.5 (≈ 21.9 µM)	6.25 (≈ 11 µM)	50 (≈ 87.8 µM)	3.13 (≈ 5.49 µM)	6.25 (≈ 11 µM)	12.5 (≈ 21.9 µM)	6.25 (≈ 11 µM)		MIC [15, 25]: 6.25 µg/mL (≈ 11 µM); MIC [17, 26]: 50 µg/mL (≈ 87.8 µM); MIC [18, 27]: 50 µg/mL (≈ 87.8 µM); LD50 [19]: > 400 mg/kg
NCCC(O)C(=O)NC1CC(N)C(OC2OC(CO)CCC2N)C(O)C1OC1OC(CO)C(O)C(N)C1O [AHB-DDKC, 1-N-(L-4-amino-2-hydroxybutyryl)-3',4'-dideoxykanamycin C]	25 (≈ 45.2 µM)	12.5 (≈ 22.6 µM)	25 (≈ 45.2 µM)	6.25 (≈ 11.3 µM)	12.5 (≈ 22.6 µM)	25 (≈ 45.2 µM)	12.5 (≈ 22.6 µM)	25 (≈ 45.2 µM)	100 (≈ 181 µM)	12.5 (≈ 22.6 µM)	100 (≈ 181 µM)	12.5 (≈ 22.6 µM)	12.5 (≈ 22.6 µM)	6.25 (≈ 11.3 µM)	100 (≈ 181 µM)	6.25 (≈ 11.3 µM)	6.25 (≈ 11.3 µM)	12.5 (≈ 22.6 µM)	12.5 (≈ 22.6 µM)		MIC [15, 25]: 12.5 µg/mL (≈ 22.6 µM); MIC [17, 26]: 100 µg/mL (≈ 181 µM); MIC [18, 27]: 100 µg/mL (≈ 181 µM)
NCC1CCC(N)C(OC2C(N)CC(N)C(OC3OC(CO)C(O)C(N)C3O)C2O)O1 (stereo not drawn) [3',4'-dideoxykanamycin B]																				do not inhibit the growth	growth inhibition of resistant bacteria producing the aminoglycoside 6'-acetyltransferase [21]: do not inhibit the growth; activity against resistant bacteria producing aminoglycoside 3'-phosphotransferase [22]: active against the resistant bacteria
NCC1OC(OC2C(N)CC(N)C(OC3OC(CO)C(O)C(N)C3O)C2O)C(N)CC1O (stereo not drawn) [3'-deoxykanamycin B]																				do not inhibit the growth	growth inhibition of resistant bacteria producing the aminoglycoside 6'-acetyltransferase [21]: do not inhibit the growth; activity against resistant bacteria producing aminoglycoside 3'-phosphotransferase [22]: active against the resistant bacteria
NCCC(O)C(=O)NC1CC(N)C(OC2OC(CN)C(O)C(O)C2N)C(O)C1OC1OC(CO)C(O)C(N)C1O [1-N-(L-4-amino-2-hydroxybutyryl)-kanamycin B]																					acetylation by a 6'-acetyltransferase (6'-acetyltransferase): acetylated
NC1CC(O)C(CO)OC1OC1C(N)CC(N)C(OC2OC(CO)C(O)C(N)C2O)C1O (stereo not drawn) [3'-deoxykanamycin C]																				not able to inhibit the growth	
NC1CCC(CO)OC1OC1C(N)CC(N)C(OC2OC(CO)C(O)C(N)C2O)C1O (stereo not drawn) [3',4 '-dideoxykanamycin C, 3',4'-dideoxykanamycin C]																				not able to inhibit the growth	
